How the values were obtained:
Conditions in all cases: 72 h
HepG2 [1] = assay: drug sensitivity score (DSS) for viability; higher = more toxic; extreme values may be limits of the assay
Caco-2 [2] = assay: as above
Calu-3 [3] = assay: as above
Vero E6 [4] = assay: as above
U2OS [5] = assay: as above
HepG2 [6] = assay: relative viability EC50 (midpoint between 100% and the lowest measured viability); higher = less toxic
Caco-2 [7] = assay: as above
Calu-3 [8] = assay: as above
Vero E6 [9] = assay: as above
U2OS [10] = assay: as above
HepG2 [11] = assay: cell viability relative to DMSO; higher = less toxic
Caco-2 [12] = assay: as above
Calu-3 [13] = assay: as above
Vero E6 [14] = assay: as above
U2OS [15] = assay: as above

Compound	drug sensitivity score (HepG2 [1])	drug sensitivity score (Caco-2 [2])	drug sensitivity score (Calu-3 [3])	drug sensitivity score (Vero E6 [4])	drug sensitivity score (U2OS [5])	relative viability EC50 (HepG2 [6]) [µM]	relative viability EC50 (Caco-2 [7]) [µM]	relative viability EC50 (Calu-3 [8]) [µM]	relative viability EC50 (Vero E6 [9]) [µM]	relative viability EC50 (U2OS [10]) [µM]	cell viability (HepG2 [11]; 1 nM) [%]	cell viability (HepG2 [11]; 10 nM) [%]	cell viability (HepG2 [11]; 100 nM) [%]	cell viability (HepG2 [11]; 1000 nM) [%]	cell viability (HepG2 [11]; 10000 nM) [%]	cell viability (Caco-2 [12]; 1 nM) [%]	cell viability (Caco-2 [12]; 10 nM) [%]	cell viability (Caco-2 [12]; 100 nM) [%]	cell viability (Caco-2 [12]; 1000 nM) [%]	cell viability (Caco-2 [12]; 10000 nM) [%]	cell viability (Calu-3 [13]; 1 nM) [%]	cell viability (Calu-3 [13]; 10 nM) [%]	cell viability (Calu-3 [13]; 100 nM) [%]	cell viability (Calu-3 [13]; 1000 nM) [%]	cell viability (Calu-3 [13]; 10000 nM) [%]	cell viability (Vero E6 [14]; 1 nM) [%]	cell viability (Vero E6 [14]; 10 nM) [%]	cell viability (Vero E6 [14]; 100 nM) [%]	cell viability (Vero E6 [14]; 1000 nM) [%]	cell viability (Vero E6 [14]; 10000 nM) [%]	cell viability (U2OS [15]; 1 nM) [%]	cell viability (U2OS [15]; 10 nM) [%]	cell viability (U2OS [15]; 100 nM) [%]	cell viability (U2OS [15]; 1000 nM) [%]	cell viability (U2OS [15]; 10000 nM) [%]
C=CC(N)CCC(=O)O (stereo not given) [vigabatrin]	0	0	0	0	0	> 10	> 10	> 10	> 10	> 10	100	89.6	113	96.1	104	93.7	96.1	101	98.1	93.2	103	105	99	102	106	96.5	93.8	101	88.4	97.1	95.9	103	96.8	99.4	91.7
O=C(O)CNC(=O)c1ccccc1I [2-iodohippuric-acid]	0	0	0	0	0	> 10	> 10	> 10	> 10	> 10	101	100	97.3	101	91.3	103	103	93.1	96.4	105	101	106	91.7	104	91.7	109	107	99.1	102	97.8	100	97.6	97.8	96.7	102
CCC(=O)N1CCN(c2ccc(-n3c(=O)ccc4cnc5ccc(-c6cnc7ccccc7c6)cc5c43)cc2C(F)(F)F)CC1 [torin-1]	9.8	10.7	14.4	9.3	12	0.684	0.426	0.183	0.404	0.512	101	97.9	95	53.8	26.3	97.5	101	89.6	49.4	31.1	108	98.7	86.4	33.7	32.4	93.4	94.4	88.2	57.9	39.4	100	103	91.8	42.2	19

Reference: the supplement of paper PMC13380429
